# The source made the active and inactive calls. The calls are words filed in the database; no cut-off is given here.
# Assays:
# HCT-116 [1] = test: Effect on DCAF15 expression in human HCT-116 cells at 0.1 to 5 uM incubated for 24 hrs by Western blot analysis; type: functional, cell-based; details: dose 0.1-5 µM
# HCT-116 [2] = test: Induction of spliceosome function impairment in human HCT-116 cells assessed as fold increase in NCKAP1L RI transcript at 1 to 10 uM incubated for 12 hrs by qRT-PCR analysis relative to control; type: functional; details: dose 1-10 µM
# HCT-116 [3] = test: Induction of spliceosome function impairment in human HCT-116 cells assessed as fold increase in PRPF38A RI transcript at 1 to 10 uM incubated for 12 hrs by qRT-PCR analysis relative to control; type: functional; details: dose 1-10 µM
# HCT-116 [4] = test: Induction of spliceosome function impairment in human HCT-116 cells assessed as fold decrease in ZNF207 exon8-exon9 RNA level at 1 to 10 uM incubated for 12 hrs by qRT-PCR analysis relative to control; type: functional; details: dose 1-10 µM
# [5] = Cmax in ICR mouse at 15 mg/kg, po; type: ADME, organism-based; details: in vivo
# [6] = AUC (0 to t) in ICR mouse at 15 mg/kg, po; type: ADME, organism-based; details: in vivo
# HCT-116 [7] = test: Effect on RNA splicing in human HCT-116 cells assessed as CEP192 gene skipping exons at 2 uM incubated for 12 hrs by RNA-seq analysis; type: functional, cell-based
# HCT-116 [8] = test: Effect on RNA splicing in human HCT-116 cells assessed as CEP192 gene retention of introns at 2 uM incubated for 12 hrs by RNA-seq analysis; type: functional, cell-based
# HCT-116 [9] = test: Effect on RNA splicing in human HCT-116 cells assessed as CEP192 gene skipping exons up to 10 uM by PCR analysis; type: functional, cell-based; details: time 1-24 hrs
# HCT-116 [10] = test: Effect on RNA splicing in human HCT-116 cells assessed as CEP192 gene retention of introns up to 10 uM by PCR analysis; type: functional, cell-based; details: time 1-24 hrs
# K562 [11] = test: Effect on RNA splicing in human K562 cells assessed as CEP192 gene skipping exons incubated for 12 hrs by PCR analysis; type: functional, cell-based; details: dose 0.1-10 µM
# MV4-11 = test: Effect on RNA splicing in human MV4-11 cells assessed as CEP192 gene retention of introns incubated for 12 hrs by PCR analysis; type: functional, cell-based; details: dose 0.1-10 µM
# HL-60 [12] = test: Effect on RNA splicing in human HL-60 cells assessed as CEP192 gene skipping exons incubated for 12 hrs by PCR analysis; type: functional, cell-based; details: dose 0.1-10 µM
# HL-60 [13] = test: Effect on RNA splicing in human HL-60 cells assessed as CEP192 gene retention of introns incubated for 12 hrs by PCR analysis; type: functional, cell-based; details: dose 0.1-10 µM
# Kasumi 1 [14] = test: Effect on RNA splicing in human Kasumi 1 cells assessed as CEP192 gene skipping exons incubated for 12 hrs by PCR analysis; type: functional, cell-based; details: dose 0.1-10 µM
# Kasumi 1 [15] = test: Effect on RNA splicing in human Kasumi 1 cells assessed as CEP192 gene retention of introns incubated for 12 hrs by PCR analysis; type: functional, cell-based; details: dose 0.1-10 µM
# MOLM-13 [16] = test: Effect on RNA splicing in human MOLM-13 cells assessed as CEP192 gene retention of introns incubated for 12 hrs by PCR analysis; type: functional, cell-based; details: dose 0.1-10 µM
# CEM/C1 [17] = test: Effect on RNA splicing in human CEM/C1 cells assessed as CEP192 gene retention of introns incubated for 12 hrs by PCR analysis; type: functional, cell-based; details: dose 0.1-10 µM
# RS4-11 [18] = test: Effect on RNA splicing in human RS4;11 cells assessed as CEP192 gene skipping exons incubated for 12 hrs by PCR analysis; type: functional, cell-based; details: dose 0.1-10 µM
# RS4-11 [19] = test: Effect on RNA splicing in human RS4;11 cells assessed as CEP192 gene retention of introns incubated for 12 hrs by PCR analysis; type: functional, cell-based; details: dose 0.1-10 µM
# [20] = Effect on RNA splicing in human K562 cells assessed as number of mutually exclusive exons at 2 uM incubated for 12 hrs by RNA-seq analysis; type: functional
# [21] = Effect on RNA splicing in human K562 cells assessed as number of retention of introns at 2 uM incubated for 12 hrs by RNA-seq analysis; type: functional
# [22] = Effect on RNA splicing in human K562 cells assessed as number of alternative 5' splice sites at 2 uM incubated for 12 hrs by RNA-seq analysis; type: functional
# [23] = Effect on RNA splicing in human K562 cells assessed as skipping exons at 2 uM incubated for 12 hrs by RNA-seq analysis relative to control; type: functional
# [24] = Effect on RNA splicing in human K562 cells assessed as retention of introns at 2 uM incubated for 12 hrs by RNA-seq analysis relative to control; type: functional
# K562 [25] = test: Antiproliferative activity against human K562 cells assessed as inhibition of cell growth incubated for 4 days by CCK8 assay; type: functional, cell-based; details: time 4.0 day
# HL-60 [26] = test: Antiproliferative activity against human HL-60 cells assessed as inhibition of cell growth incubated for 4 days by CCK8 assay; type: functional, cell-based; details: time 4.0 day
# Kasumi 1 [27] = test: Antiproliferative activity against human Kasumi 1 cells assessed as inhibition of cell growth incubated for 4 days by CCK8 assay; type: functional, cell-based; details: time 4.0 day
# CEM/C1 [28] = test: Antiproliferative activity against human CEM/C1 cells assessed as inhibition of cell growth incubated for 4 days by CCK8 assay; type: functional, cell-based; details: time 4.0 day
# RS4-11 [29] = test: Antiproliferative activity against human RS4;11 cells assessed as inhibition of cell growth incubated for 4 days by CCK8 assay; type: functional, cell-based; details: time 4.0 day
# HCT-116 [30] = test: Induction of cell cycle arrest in human HCT-116 cells assessed as accumulation at G2/M phase at 1 uM incubated for 24 hrs by PI staining based flow cytometry relative to control; type: functional
# HCT-116 [31] = test: Induction of cell cycle arrest in human HCT-116 cells assessed as accumulation at G2/M phase at 1 uM incubated for 48 hrs by PI staining based flow cytometry relative to control; type: functional
# HCT-116 [32] = test: Induction of cell cycle arrest in human HCT-116 cells assessed as accumulation at G2/M phase at 1 uM incubated for 72 hrs by PI staining based flow cytometry relative to control; type: functional
# K562 [33] = test: Induction of RBM39 degradation in human K562 cells incubated for 24 hrs by Western blot analysis; type: cell-based; details: dose 1-10 µM
# HL-60 [34] = test: Induction of RBM39 degradation in human HL-60 cells incubated for 24 hrs by Western blot analysis; type: cell-based
# Kasumi 1 [35] = test: Induction of RBM39 degradation in human Kasumi 1 cells incubated for 24 hrs by Western blot analysis; type: cell-based
# MOLM-13 [36] = test: Induction of RBM39 degradation in human MOLM-13 cells incubated for 24 hrs by Western blot analysis; type: cell-based
# CEM/C1 [37] = test: Induction of RBM39 degradation in human CEM/C1 cells incubated for 24 hrs by Western blot analysis; type: cell-based
# HCT-116 [38] = test: Induction of spliceosome function impairment in human HCT-116 cells assessed as increase in CUL4A RI transcript at 1 to 10 uM incubated for 12 hrs by qRT-PCR analysis; type: functional, cell-based; details: dose 1-10 µM
# HCT-116 [39] = test: Induction of spliceosome function impairment in human HCT-116 cells assessed as increase in NCKAP1L RI transcript at 1 to 10 uM incubated for 12 hrs by qRT-PCR analysis; type: functional, cell-based; details: dose 1-10 µM
# HCT-116 [40] = test: Induction of spliceosome function impairment in human HCT-116 cells assessed as increase in PRPF38A RI transcript at 1 to 10 uM incubated for 12 hrs by qRT-PCR analysis; type: functional, cell-based; details: dose 1-10 µM
compound,measurement,setting,value
Cc1ccc(NS(=O)(=O)c2cccc(NC(=O)C(=O)N3CCC[C@@H]3CO)c2)c2[nH]cc(C#N)c12,Activity,HCT-116 [1],inactive
same,fold change (FC),HCT-116 [2],3
same,fold change (FC),HCT-116 [3],3
same,fold change (FC),HCT-116 [4],10
same,Cmax,[5],2120 ng/mL
same,AUC(0-t),[6],3480 ng·h/mL
same,Activity,HCT-116 [7],"Active; Observed Skipping Of Exons 42, 28 And 13"
same,Activity,HCT-116 [8],Active; Observed Retention Of Introns Between Exons 27 And 28
same,Activity,HCT-116 [9],"Time-dependent-effect; Observed Skipping Of Exons 42, 28 And 13"
same,Activity,HCT-116 [10],Time-dependent-effect; Observed Retention Of Introns Between Exons 27 And 28
same,Activity,K562 [11],"Dose-dependent-effect; Observed Skipping Of Exons 42, 28 And 13"
same,Activity,MV4-11,Dose-dependent-effect; Observed Retention Of Introns Between Exons 27 And 28
same,Activity,HL-60 [12],"Dose-dependent-effect; Observed Skipping Of Exons 42, 28 And 13"
same,Activity,HL-60 [13],Dose-dependent-effect; Observed Retention Of Introns Between Exons 27 And 28
same,Activity,Kasumi 1 [14],"Dose-dependent-effect; Observed Skipping Of Exons 42, 28 And 13"
same,Activity,Kasumi 1 [15],Dose-dependent-effect; Observed Retention Of Introns Between Exons 27 And 28
same,Activity,MOLM-13 [16],Dose-dependent-effect; Observed Retention Of Introns Between Exons 27 And 28
same,Activity,CEM/C1 [17],Dose-dependent-effect; Observed Retention Of Introns Between Exons 27 And 28
same,Activity,RS4-11 [18],"Dose-dependent-effect; Observed Skipping Of Exons 42, 28 And 13"
same,Activity,RS4-11 [19],Dose-dependent-effect; Observed Retention Of Introns Between Exons 27 And 28
same,Activity,[20],1801
same,Activity,[21],1454
same,Activity,[22],633
same,Activity,[23],70.6%
same,Activity,[24],8.4%
same,inhibition,K562 [25],Active
same,inhibition,HL-60 [26],Active
same,inhibition,Kasumi 1 [27],Active
same,inhibition,CEM/C1 [28],Active
same,inhibition,RS4-11 [29],Active
same,Activity,HCT-116 [30],33%
same,Activity,HCT-116 [31],58%
same,Activity,HCT-116 [32],66%
same,Activity,K562 [33],Dose-dependent-effect
same,Activity,HL-60 [34],Dose-dependent-effect
same,Activity,Kasumi 1 [35],Dose-dependent-effect
same,Activity,MOLM-13 [36],Dose-dependent-effect
same,Activity,CEM/C1 [37],Dose-dependent-effect
NS(=O)(=O)c1ccc(S(=O)(=O)Nc2cccc3c(Cl)c[nH]c23)cc1 [INDISULAM],Activity,HCT-116 [38],Active
same,Activity,HCT-116 [39],Active
same,Activity,HCT-116 [40],Active
